The values that follow come from US5554640A, “Use of propanolamine derivatives as selective 5-HT1 antagonists” (Eli Lilly and Company, priority 1995, dated 1996).

“Also recorded” adds a separate entry of the source. Where two headings read alike, the source gives them in different places.

One assay deals with β-adrenergic receptors. The assay can be described thus: Binding of 3H-dihydroalprenolol to β-adrenergic receptors, calf brain cortical membranes. Details: species or system bovine (calf). The conditions noted are these: inhibition of 2 nM 3H-dihydroalprenolol binding, 20° C, 20 minutes, pH 7.4, read-out: Beta IC50. The procedure: The compounds of this invention were evaluated in the following tests systems. Procedure for radioligand receptor assays--Male Sprague-Dawley rats weighing 110-150 g were decapitated and brains were immediately removed. Bovine brains were quickly removed from calf in the slaughterhouse. Cerebral cortices were dissected out at 4° C. and homogenized in 0.32M sucrose. After centrifugation at 1000×g for 10 minutes and then 17,000×g for 20 minutes, a crude synaptosomal fraction was sedimented. The pellet was suspended in 100 volumes of 50 mM tris-HCl buffered at pH 7.4, incubated at 37° C. for 10 minutes, and centrifuged at 50,000×g for 10 minutes. The process was repeated and the final pellet was suspended in ice-chilled 50 mM tris-HCl buffered at pH 7.4. […] Cortical membranes (500 μg protein) of calf brain were incubated at 20° C. for 20 minutes in 2 ml of medium containing […] tris-HCl buffered at pH 7.4; 2 nM 3H-dihydroalprenolol; and various concentrations of test compound. Binding was terminated by filtering samples through glass fiber (GFC) filters. […] Other conditions were as described for 3[…] binding.

Assay [1] addresses T1, serotonin-1A receptor (5-HT1A) (Rattus norvegicus, UniProt P19327).
T1 sequence (P19327 1-422): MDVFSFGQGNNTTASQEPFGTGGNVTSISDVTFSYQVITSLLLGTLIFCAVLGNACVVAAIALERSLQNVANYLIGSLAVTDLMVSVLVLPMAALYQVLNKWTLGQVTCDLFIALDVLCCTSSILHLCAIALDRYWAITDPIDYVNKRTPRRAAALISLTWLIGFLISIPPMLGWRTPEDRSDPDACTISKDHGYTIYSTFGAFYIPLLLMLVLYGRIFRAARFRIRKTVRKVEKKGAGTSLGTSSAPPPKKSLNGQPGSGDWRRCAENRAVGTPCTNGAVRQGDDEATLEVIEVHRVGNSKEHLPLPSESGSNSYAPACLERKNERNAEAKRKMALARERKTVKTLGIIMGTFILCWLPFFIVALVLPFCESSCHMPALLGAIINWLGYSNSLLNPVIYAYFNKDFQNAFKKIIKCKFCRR
The assay can be described thus: biochemical. The assay is classed as binding, rat (Sprague-Dawley). The conditions noted are these: for Ratio Beta IC50 / 5-HT1A IC50: selectivity for 5-HT1A over beta receptor, Beta IC50 from 3H-dihydroalprenolol binding. The procedure: The compounds of this invention were evaluated in the following tests systems.
Procedure for radioligand receptor assays--Male Sprague-Dawley rats weighing 110-150 g were decapitated and brains were immediately removed. Bovine brains were quickly removed from calf in the slaughterhouse. Cerebral cortices were dissected out at 4° C. and homogenized in 0.32M sucrose. After centrifugation at 1000×g for 10 minutes and then 17,000×g for 20 minutes, a crude synaptosomal fraction was sedimented. The pellet was suspended in 100 volumes of 50 mM tris-HCl buffered at pH 7.4, incubated at 37° C. for 10 minutes, and centrifuged at 50,000×g for 10 minutes. The process was repeated and the final pellet was suspended in ice-chilled 50 mM tris-HCl buffered at pH 7.4.
Binding of ^3 H-8-hydroxy-2- (di-n-propylamino) tetralin(3H-80HDPAT) to serotonin-1A receptor was performed according to the method described by Wong et al., J. Neural Transm. , 71, 207 (1988). Cortical membranes (300 μg protein) isolated from rat brain were incubated at 28 C for 30 minutes in 2 ml of medium containing 50 mM tris-HCl buffered at pH 7.4; 10 μM pargyline; 0.6 mM ascorbic acid; 5 mM calcium chloride; 0.4 nM 3H-8OHDPAT; and various concentrations of test compound. Binding was terminated by filtering samples under reduced pressure through glass fiber (GFB) filters. The filters were washed twice with 5 ml of ice cold buffer and placed in scintillation vials with 10 ml of PCS (Amlersham/Searle) scintillation fluid. Radioactivity was measured with a liquid scintillation spectrometer. Specific binding of 3H-80HDPAT is defined as the difference of radioactivity bound in the absence and in the presence of 10 μM spiperone.

Assay [2] relates to 5-HT1A and 5-HT1B receptors. As to conditions: background knowledge; cited from earlier work.
[3] abbreviates: inhibition of 0.4 nM 3H-8OHDPAT binding, rat cortical membranes, 28 C, 30 minutes, pH 7.4.

By IC50 is commonly meant the concentration needed to halve the response being measured. For `CC1CCCCC1NCC(O)COc1cccc2ccccc12` (stereo not drawn) [(2-methylcyclohexyl)], the IC50 at β-adrenergic receptors came to 174 nM; in assay [1] (setting [3]), 33.4 nM. Also, in assay [1], the “Ratio Beta IC50 / 5-HT1A IC50” value came to 5.2.
The matching figures for `OC(CN[C@H]1CC[C@H](c2ccccc2)CC1)COc1cccc2ccccc12` (stereo partly drawn) [(E-4-phenylcyclohexyl)]: 264 nM, more than 1000 nM and less than 0.26.
On the same counts, the results for `OC(CN[C@H]1CC[C@@H](c2ccccc2)CC1)COc1cccc2ccccc12` (stereo partly drawn) [(Z-4-phenylcyclohexyl)] are 442 nM, 34.1 nM and 13.
As for `O=C(O)C(=O)O.OC(CNC1CCCCCC1)COc1cccc2ccccc12` (stereo not drawn) [(cycloheptyl), 1-(1-Naphthalenoxy) -3-(cycloheptylamino) -2-propanol ethanedioate], the IC50 at β-adrenergic receptors was 2280 nM. Also, in assay [1], the IC50 is 23 nM and the “Ratio Beta IC50 / 5-HT1A IC50” value is 99.
As to `OC(CNC1CCCCC1)COc1cccc2ccccc12` (stereo not drawn) [(cyclohexyl)], the IC50 worked out at 622 nM on β-adrenergic receptors and 15.4 nM in assay [1] (setting [3]). Also, the “Ratio Beta IC50 / 5-HT1A IC50” value in assay [1] was found to be 40.4.
For `O=C(O)C(=O)O.OC(CNC1CCCCCCC1)COc1cccc2ccccc12` (stereo not drawn) [(cyclooctyl), 1-(1-Naphthalenoxy)-3-(cyclooctylamino) -2-propanol ethanedioate], the 50% inhibitory concentration (IC50) at β-adrenergic receptors is 1000 nM. In addition, in assay [1], half-maximal inhibition (IC50) required 45 nM and the “Ratio Beta IC50 / 5-HT1A IC50” value was found to be 22.2.
`OC(CNC1CCCC1)COc1cccc2ccccc12` (stereo not drawn) [(cyclopentyl)]: the 50% inhibitory concentration (IC50) on β-adrenergic receptors is 138 nM; in assay [1] (setting [3]), 49 nM. The “Ratio Beta IC50 / 5-HT1A IC50” value in assay [1] is on record as 2.8.
The matching figures for `CC(C)(C)C(C)(C)NCC(O)COc1cccc2ccccc12` (stereo not drawn) [C(CH3)2 C(CH3)3]: 225 nM, 16.8 nM and 15.2.
For the compound `CC#CC(C)(C)NCC(O)COc1cccc2ccccc12` (stereo not drawn) [C(CH3)2 CCCH3], the half-inhibitory concentration (IC50) was found to be 398 nM on β-adrenergic receptors and 38 nM in assay [1] (setting [3]). Besides, the “Ratio Beta IC50 / 5-HT1A IC50” value in assay [1] came to 10.5.
On the same counts, the results for `C#CC(C)(C)NCC(O)COc1cccc2ccccc12` (stereo not drawn) [C(CH3)2 CCH] are 1360 nM, 88 nM and 15.4.
The matching figures for `CCCC(C)(C)NCC(O)COc1cccc2ccccc12` (stereo not drawn) [C(CH3)2 CH2 CH2 CH3]: 98 nM, 41 nM and 2.4.
The matching figures for `CCC(C)(C)NCC(O)COc1cccc2ccccc12` (stereo not drawn) [C(CH3)2 CH2 CH3]: 1050 nM, 53 nM and 20.
In the case of `C=CC(C)(C)NCC(O)COc1cccc2ccccc12` (stereo not drawn) [C(CH3)2 CHCH2], the results for the IC50 (on β-adrenergic receptors; in assay [1] (setting [3])) were 124 nM and 100 nM, respectively. Moreover, the “Ratio Beta IC50 / 5-HT1A IC50” value in assay [1] amounted to 1.24.
Regarding `CC(C)(C)NCC(O)COc1cccc2ccccc12` (stereo not drawn) [C(CH3)3], the IC50 at β-adrenergic receptors is 97.3 nM; in assay [1] (setting [3]), 77 nM. Also, in assay [1], the “Ratio Beta IC50 / 5-HT1A IC50” value worked out at 1.3.
On the same counts, the results for `OC(CNCCc1ccccc1)COc1cccc2ccccc12` (stereo not drawn) [CH2 CH2 C6 H5] are 313 nM, 63 nM and 4.8.
With `CCCCCNCC(O)COc1cccc2ccccc12` (stereo not drawn) [CH2 CH2 CH2 CH2 CH3], the 50% inhibitory concentration (IC50) is 185 nM at β-adrenergic receptors and 23.4 nM in assay [1] (setting [3]). The “Ratio Beta IC50 / 5-HT1A IC50” value in assay [1] worked out at 7.9.
Consider `CCCCNCC(O)COc1cccc2ccccc12` (stereo not drawn) [CH2 CH2 CH2 CH3], for which the values for the 50% inhibitory concentration (IC50) (at β-adrenergic receptors; in assay [1] (setting [3])) were 124 nM and 36.9 nM, respectively. The “Ratio Beta IC50 / 5-HT1A IC50” value in assay [1] stood at 3.4.
With `CC(C)CNCC(O)COc1cccc2ccccc12` (stereo not drawn) [CH2 CH(CH3)2], the IC50 at β-adrenergic receptors was determined as 683 nM; in assay [1] (setting [3]), 73 nM. Further, the “Ratio Beta IC50 / 5-HT1A IC50” value in assay [1] amounted to 9.4.
For the compound `CCCC(C)(C)NCC(O)COc1ccccc1C1CCCC1.O=C(O)C(=O)O` (stereo not drawn) [CH(CH3)2 CH2 CH2 CH3, 1-(2-Cyclopentylphenoxy)-3-(1,1-dimethylbutylamino) -2-propanol ethanedioate], at β-adrenergic receptors, the IC50 worked out at 16 nM. Moreover, in assay [1], 6.5 nM corresponded to half-maximal inhibition (IC50) and the “Ratio Beta IC50 / 5-HT1A IC50” value was found to be 2.5.
Turning to `C#CC(C)NCC(O)COc1cccc2ccccc12` (stereo not drawn) [CH(CH3)CCH], the IC50 on β-adrenergic receptors is 1270 nM; in assay [1] (setting [3]), 180 nM. The “Ratio Beta IC50 / 5-HT1A IC50” value in assay [1] worked out at 7.1.
The matching figures for `CCC(C)NCC(O)COc1cccc2ccccc12` (stereo not drawn) [CH(CH3)CH2 CH3]: 104 nM, 73 nM and 1.4.
Take `COCC(C)NCC(O)COc1cccc2ccccc12` (stereo not drawn) [CH(CH3)CH2 OCH3]: the 50% inhibitory concentration (IC50) on β-adrenergic receptors turned out to be 65 nM; in assay [1] (setting [3]) it was 147 nM.
`O=C(O)/C=C\C(=O)O.OC(CNC1CCCCC1)COc1cccc2[nH]ccc12` (stereo not drawn) [Cyclohexyl, 1-(4-Indolyloxy)-3-(cyclohexylamino)-2-propanol maleate]: the IC50 was found to be 56 nM at β-adrenergic receptors and 10.3 nM in assay [1] (setting [3]). In addition, the “Ratio Beta IC50 / 5-HT1A IC50” value in assay [1] was 5.4.
As to `O=C(O)C(=O)O.OC(CNC1CCCCCC1)COc1ccccc1C1CCCC1` (stereo not drawn) [cycloheptyl, 1-(2-Cyclopentylphenoxy)-3-(cycloheptylamino) 2-propanol ethanedioate], the IC50 on β-adrenergic receptors amounted to 48 nM; in assay [1], 3 nM. Further, the “Ratio Beta IC50 / 5-HT1A IC50” value in assay [1] worked out at 16.
For `O=C(O)C(=O)O.OC(CNC1CCCCCCC1)COc1ccccc1C1CCCC1` (stereo not drawn) [cyclooctyl, 1-(2-Cyclopentylphenoxy) -3-(cyclooctylamino) 2-propanol ethanedioate], at β-adrenergic receptors, the IC50 is more than 1000 nM. Moreover, in assay [1], the 50% inhibitory concentration (IC50) is 5 nM and the “Ratio Beta IC50 / 5-HT1A IC50” value is reported as more than 200.
For the compound `OC(CNC1CCCC1)COc1ccccc1C1CCCC1` (stereo not drawn) [cyclopentyl], the IC50 on β-adrenergic receptors was found to be 7 nM; in assay [1] (setting [3]), 5 nM. The “Ratio Beta IC50 / 5-HT1A IC50” value in assay [1] is 1.4.
As to `CC(C)NCC(O)COc1cccc2[nH]ccc12` (stereo not drawn) [pindolol], the “antagonism of 5-HT1 receptors relative to β-block (in words)” value in assay [2] is given as “at concentrations far in excess of those shown to block the β-receptor; also recorded: not selective agents for the serotonin receptor due to their β-blocking activities”.
